Assay results taken from patent US6750214B2, “Quinoline and quinazoline compounds useful in therapy” (priority 1995, dated 2004).

Tested on: human prostate
Experiment: Contractile responses of human prostate
Conditions: antagonist affinity estimate against (−)-noradrenaline contractions of human prostatic tissue strips; single antagonist concentration, incubated 2 hours
Description: Contractile Responses of Human Prostate
Prostatic tissue was cut into longitudinal strips (approximately 3×2×10 mm) and suspended in organ baths under a resting tension of 1 g in Krebs Ringer bicarbonate of the following composition (mM): NaCl (119), KCl (4.7), CaCl2 (2.5), KH2PO4 (1.2), MgSO4 (1.2), NaHCO3 (25), glucose (11), and gassed with 95% O2/5% CO2. The solution also contained 10 mM cocaine and 10 mM corticosterone. Tissues were exposed to a sensitising dose of (−)-noradrenaline ([…]) and washed over a 45 minute period. Isometric contractions were obtained in response to cumulative additions of (−)-noradrenaline to obtain control curves in all tissues. A further curve was then generated in the presence or absence of antagonist (incubated for 2 hours). Antagonist affinity estimates (pA2) were determined using a single concentration of competing antagonist, pA2=−log [A]/(DR-1) where the dose ratio (DR), relative to corresponding controls, was produced by a single concentration of antagonist [A], assuming competitive antagonism and Schild regression close to unity.

## COc1cc2nc(N3CCCN(C(=O)N4C[C@H](O)[C@@H](O)C4)CC3)nc(N)c2c(-c2ccccc2)c1OC.Cl [Example 17, 4-Amino-6,7-dimethoxy-2-{4-[1-(3S,4S-dihydroxypyrrolidine)carbonyl]-1,4-diazepan-1-yl}-5-phenylquinazoline hydrochloride]
  pA2 value: 8.5
